Results as given in patent US10894798B2, “Substituted dihydropyrrolopyrazole derivative” (UBE INDUSTRIES, LTD., priority 2015, dated 2021).

How the values were obtained:
[1] = biological target: T1, CDK2 (Homo sapiens, UniProt P24941); assay: CDK2 enzyme inhibition test; type: biochemical; conditions: [γ-33P]ATP, MBP substrate; Ki=IC50/(1+S/Km); read-out: Ki value of CDK2 inhibitory activity
T1 construct: purchased Invitrogen Corp. PV3267
Method in brief: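 Commercial CDK2 phosphorylated MBP with [γ-33P]ATP (500 μM solution before mixing) in HEPES pH 7.4 buffer with DTT, Triton X-100 and MgCl2 for 20 min at 30 °C. TCA-precipitated 33P-MBP was counted by scintillation to give the IC50. Ki = IC50/(1+S/Km), with S the ATP concentration in the reaction.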

[2] = test system: human large intestine cancer cell (HCT 116) tumor; assay: Tumor growth inhibition test in HCT 116-subcutaneously transplanted nude mouse; type: in vivo; conditions: dose of 100 mg/kg, repeated oral administration, HCT-116 in female BALB nude mice, control group = 100%, read-out: rate of suppression of tumor volume
Description: A human large intestine cancer cell line (HCT-116) was cultured in a McCoy's 5A medium containing 10% FBS and 1% penicillin/streptomycin/amphotericin B and adjusted to 1.0×10^8 cells/mL with PBS or Hanks solution (HBSS(−)). The prepared cell suspension was subcutaneously injected at 0.1 mL/mouse to the right abdomens of female BALB nude mice (supplied by Charles River Laboratories Japan, Inc.). After rearing for a certain period, the long diameter (mm) and short diameter (mm) of tumor were measured with electronic calipers, and the tumor volume was calculated according to the following expression: Tumor volume (mm^3)=(Long diameter)×(Short diameter)×(Short diameter)×0.5
Individuals whose tumor volume was within the range of 50 to 200 mm^3 were selected and grouped such that the tumor volume was almost equivalent, then a test compound or only a solvent was orally administered in a repeated manner, and the body weights and tumor volume were measured. A test compound was suspended in a 0.5 w/v % aqueous methylcellulose solution (0.5% MC) (manufactured by Wako Pure Chemical Industries, Ltd.) and orally administered at 10 mL/kg in a repeated manner. When the tumor volume of the control group was defined as 100%, the rate of suppression of tumor volume (%) at each dose of the test compound was calculated.

[3] = biological target: T2, CDK7 (Homo sapiens, UniProt P50613); assay: CDK7 enzyme inhibition test; type: biochemical; conditions: [γ-33P]ATP, MBP substrate, 60 min preincubation at 25°C; Ki=IC50/(1+S/Km); read-out: Ki value of CDK7 inhibitory activity
T2 construct: purchased Carna Biosciences, Inc. 04-108
Method in brief: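 Commercial human CDK7 with myelin basic protein substrate in HEPES pH 7.4 buffer with DTT, Triton X-100, MgCl2; compound preincubated 60 min at 25° C, then reaction run 20 min at 30° C after adding [γ-^33P]ATP (500 μM solution). TCA-precipitated ^33P-MBP counted by scintillation; IC50 converted to Ki via Ki=IC50/(1+S/Km).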

T2 sequence (P50613 whole entry): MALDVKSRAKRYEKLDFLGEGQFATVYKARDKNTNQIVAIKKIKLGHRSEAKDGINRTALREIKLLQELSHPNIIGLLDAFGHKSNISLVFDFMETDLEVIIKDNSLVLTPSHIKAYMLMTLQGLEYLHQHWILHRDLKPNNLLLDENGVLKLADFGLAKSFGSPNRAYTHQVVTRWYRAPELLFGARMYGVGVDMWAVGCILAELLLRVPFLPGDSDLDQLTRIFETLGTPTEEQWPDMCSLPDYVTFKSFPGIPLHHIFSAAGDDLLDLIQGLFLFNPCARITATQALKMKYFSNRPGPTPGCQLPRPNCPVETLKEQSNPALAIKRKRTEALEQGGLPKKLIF
T2 sequence (P51946 whole entry partner): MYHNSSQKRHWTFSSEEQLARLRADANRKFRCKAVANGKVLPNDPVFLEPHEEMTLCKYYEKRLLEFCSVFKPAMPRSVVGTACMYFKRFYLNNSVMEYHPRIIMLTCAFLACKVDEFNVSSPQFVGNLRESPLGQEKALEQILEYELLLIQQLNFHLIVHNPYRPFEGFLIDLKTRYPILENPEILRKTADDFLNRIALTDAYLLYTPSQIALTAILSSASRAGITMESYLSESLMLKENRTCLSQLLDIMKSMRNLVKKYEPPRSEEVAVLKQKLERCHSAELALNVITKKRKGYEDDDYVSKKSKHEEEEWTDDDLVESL
T2 sequence (P51948 whole entry partner): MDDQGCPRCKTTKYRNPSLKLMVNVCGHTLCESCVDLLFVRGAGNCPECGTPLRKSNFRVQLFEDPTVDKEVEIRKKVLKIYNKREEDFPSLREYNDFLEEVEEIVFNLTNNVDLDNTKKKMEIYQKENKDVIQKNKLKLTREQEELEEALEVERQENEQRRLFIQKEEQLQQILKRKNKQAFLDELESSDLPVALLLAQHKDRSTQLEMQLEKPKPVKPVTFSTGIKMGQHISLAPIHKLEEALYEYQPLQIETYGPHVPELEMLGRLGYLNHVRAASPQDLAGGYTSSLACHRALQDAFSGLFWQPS

SMILES	Ki [1]	Ki [3]	inhibition in vivo at 100 mg/kg [2]
CC1(C)c2[nH]nc(NC(=O)C3([Si](C)(C)C)CCC3)c2CN1C(=O)Nc1ccccc1F [IV-3, N-(2-Fluorophenyl)-6,6-dimethyl-3-[1-(trimethylsilyl)cyclobutanecarboxamido]-4,6-dihydropyrrolo[3,4-c]pyrazole-5(1H)-carboxamide]	≥ 1000 nM	≤ 50 nM	≥ 50%
CC1(C)c2[nH]nc(NC(=O)C3([Si](C)(C)C)CCC3)c2CN1C(=O)Nc1ccccc1Br [IV-15, N-(2-Bromophenyl)-6,6-dimethyl-3-[1-(trimethylsilyl)cyclobutanecarboxamido]-4,6-dihydropyrrolo[3,4-c]pyrazole-5(1H)-carboxamide]	≥ 1000 nM	≤ 50 nM	≥ 50%
CC1(C)c2[nH]nc(NC(=O)C3([Si](C)(C)C)CCC3)c2CN1C(=O)Nc1c(F)cccc1Cl [IV-113, N-(2-Chloro-6-fluorophenyl)-6,6-dimethyl-3-[1-(trimethylsilyl)cyclobutanecarboxamido]-4,6-dihydropyrrolo[3,4-c]pyrazole-5(1H)-carboxamide]	≥ 1000 nM	≤ 50 nM	≥ 50%
Cc1ccc(F)c(NC(=O)N2Cc3c(NC(=O)C4([Si](C)(C)C)CCC4)n[nH]c3C2(C)C)c1 [IV-127, N-(2-Fluoro-5-methylphenyl)-6,6-dimethyl-3-[1-(trimethylsilyl)cyclobutanecarboxamido]-4,6-dihydropyrrolo[3,4-c]pyrazole-5 (1H)-carboxamide]	≥ 1000 nM	≤ 50 nM	≥ 50%
COc1cccc(F)c1NC(=O)N1Cc2c(NC(=O)C3([Si](C)(C)C)CCC3)n[nH]c2C1(C)C [IV-161, N-(2-Fluoro-6-methoxyphenyl)-6,6-dimethyl-3-[1-(trimethylsilyl)cyclobutanecarboxamido]-4,6-dihydropyrrolo[3,4-c]pyrazole-5(1H)-carboxamide]	≥ 1000 nM	≤ 50 nM	
CC1(C)c2[nH]nc(NC(=O)C3([Si](C)(C)C)CCC3)c2CN1C(=O)Nc1c(F)cccc1OC(F)F [IV-169, N-[2-(Difluoromethoxy)-6-fluorophenyl]-6,6-dimethyl-3-[1-(trimethylsilyl)cyclobutanecarboxamido]-4,6-dihydropyrrolo[3,4-c]pyrazole-5(1H)-carboxamide]	≥ 1000 nM	≤ 50 nM	
CC1(C)c2[nH]nc(NC(=O)C3([Si](C)(C)C)CCC3)c2CN1C(=O)Nc1c(Cl)cccc1Cl [IV-199, N-(2,6-Dichlorophenyl)-6,6-dimethyl-3-[1-(trimethylsilyl)cyclobutanecarboxamido]-4,6-dihydropyrrolo[3,4-c]pyrazole-5(1H)-carboxamide]	≥ 1000 nM	≤ 50 nM	≥ 50%
COc1cccc(Cl)c1NC(=O)N1Cc2c(NC(=O)C3([Si](C)(C)C)CCC3)n[nH]c2C1(C)C [IV-247, N-(2-Chloro-6-methoxyphenyl)-6,6-dimethyl-3-[1-(trimethylsilyl)cyclobutanecarboxamido]-4,6-dihydropyrrolo[3,4-c]pyrazole-5(1H)-carboxamide]	≥ 1000 nM	≤ 50 nM	
Cc1cc(F)ccc1NC(=O)N1Cc2c(NC(=O)C3([Si](C)(C)C)CCC3)n[nH]c2C1(C)C [IV-359, N-(4-Fluoro-2-methylphenyl)-6,6-dimethyl-3-[1-(trimethylsilyl)cyclobutanecarboxamido]-4,6-dihydropyrrolo[3,4-c]pyrazole-5 (1H)-carboxamide]	≥ 1000 nM	≤ 50 nM	≥ 50%
Cc1ccc(F)cc1NC(=O)N1Cc2c(NC(=O)C3([Si](C)(C)C)CCC3)n[nH]c2C1(C)C [IV-361, N-(5-Fluoro-2-methylphenyl)-6,6-dimethyl-3-[1-(trimethylsilyl)cyclobutanecarboxamido]-4,6-dihydropyrrolo[3,4-c]pyrazole-5 (1H)-carboxamide]	≥ 1000 nM	≤ 50 nM	≥ 50%
CC1(C)c2[nH]nc(NC(=O)C3([Si](C)(C)C)CCC3)c2CN1C(=O)Nc1c(F)ccc(F)c1F [IV-597, 6,6-Dimethyl-N-(2,3,6-trifluorophenyl)-3-[1-(trimethylsilyl)cyclobutanecarboxamido]-4,6-dihydropyrrolo[3,4-c]pyrazole-5(1H)-carboxamide]	≥ 1000 nM	≤ 50 nM	≥ 50%
CC1(C)c2[nH]nc(NC(=O)C3([Si](C)(C)C)CCC3)c2CN1C(=O)Nc1c(F)ccc2ccoc12 [IV-1049, N-(6-Fluorobenzofuran-7-yl)-6,6-dimethyl-3-[1-(trimethylsilyl)cyclobutanecarboxamido]-4,6-dihydropyrrolo[3,4-c]pyrazole-5 (1H)-carboxamide]	≥ 1000 nM	≤ 50 nM	≥ 50%
CC1(C)c2[nH]nc(NC(=O)C3([Si](C)(C)C)CCC3)c2CN1C(=O)Nc1c(F)ccc2cc(Cl)oc12 [IV-1063, N-(2-Chloro-6-fluorobenzofuran-7-yl)-6,6-dimethyl-3-[1-(trimethylsilyl)cyclobutanecarboxamido]-4,6-dihydropyrrolo[3,4-c]pyrazole-5(1H)-carboxamide]	≥ 1000 nM	≤ 50 nM	≥ 50%

Continued, in another order:

Ki [1]	Ki [3]	SMILES	inhibition in vivo at 100 mg/kg [2]
≥ 1000 nM	≤ 50 nM	Cc1ccccc1NC(=O)N1Cc2c(NC(=O)C3([Si](C)(C)C)CCC3)n[nH]c2C1(C)C [IV-21, 6,6-Dimethyl-N-(o-tolyl)-3-[1-(trimethylsilyl)cyclobutanecarboxamido]-4,6-dihydropyrrolo[3,4-c]pyrazole-5(1H)-carboxamide]	≥ 50%
≥ 1000 nM	≤ 50 nM	Cc1cccc(F)c1NC(=O)N1Cc2c(NC(=O)C3([Si](C)(C)C)CCC3)n[nH]c2C1(C)C [IV-129, N-(2-Fluoro-6-methylphenyl)-6,6-dimethyl-3-[1-(trimethylsilyl)cyclobutanecarboxamido]-4,6-dihydropyrrolo[3,4-c]pyrazole-5 (1H)-carboxamide]	
≥ 1000 nM	≤ 50 nM	CCc1cccc(F)c1NC(=O)N1Cc2c(NC(=O)C3([Si](C)(C)C)CCC3)n[nH]c2C1(C)C [IV-137, N-(2-Ethyl-6-fluorophenyl)-6,6-dimethyl-3-[1-(trimethylsilyl)cyclobutanecarboxamido]-4,6-dihydropyrrolo[3,4-c]pyrazole-5(1H)-carboxamide]	
≥ 1000 nM	≤ 50 nM	Cc1cccc(Cl)c1NC(=O)N1Cc2c(NC(=O)C3([Si](C)(C)C)CCC3)n[nH]c2C1(C)C [IV-215, N-(2-Chloro-6-methylphenyl)-6,6-dimethyl-3-[1-(trimethylsilyl)cyclobutanecarboxamido]-4,6-dihydropyrrolo[3,4-c]pyrazole-5 (1H)-carboxamide]	≥ 50%
≥ 1000 nM	≤ 50 nM	Cc1cccc(Br)c1NC(=O)N1Cc2c(NC(=O)C3([Si](C)(C)C)CCC3)n[nH]c2C1(C)C [IV-299, N-(2-Bromo-6-methylphenyl)-6,6-dimethyl-3-[1-(trimethylsilyl)cyclobutanecarboxamido]-4,6-dihydropyrrolo[3,4-c]pyrazole-5 (1H)-carboxamide]	≥ 50%
≥ 1000 nM	≤ 50 nM	Cc1ccc(C)c(NC(=O)N2Cc3c(NC(=O)C4([Si](C)(C)C)CCC4)n[nH]c3C2(C)C)c1 [IV-379, N-(2,5-Dimethylphenyl)-6,6-dimethyl-3-[1-(trimethylsilyl)cyclobutanecarboxamido]-4,6-dihydropyrrolo[3,4-c]pyrazole-5(1H)-carboxamide]	≥ 50%
≥ 1000 nM	≤ 50 nM	CCc1cccc(C)c1NC(=O)N1Cc2c(NC(=O)C3([Si](C)(C)C)CCC3)n[nH]c2C1(C)C [IV-389, N-(2-Ethyl-6-methylphenyl)-6,6-dimethyl-3-[1-(trimethylsilyl)cyclobutanecarboxamido]-4,6-dihydropyrrolo[3,4-c]pyrazole-5 (1H)-carboxamide]	≥ 50%
≥ 1000 nM	≤ 50 nM	Cc1ccc(C)c(NC(=O)N2Cc3c(NC(=O)C4([Si](C)(C)C)CCC4)n[nH]c3C2(C)C)c1F [IV-669, N-(2-Fluoro-3,6-dimethylphenyl)-6,6-dimethyl-3-[1-(trimethylsilyl)cyclobutanecarboxamido]-4,6-dihydropyrrolo[3,4-c]pyrazole-5(1H)-carboxamide]	≥ 50%
